Assay results as given in patent US12611434B2, “Bifidobacterium brevis and its application in preventing or alleviating psoriasis thereof” (Jiangnan University, priority 2020, dated 2026).

Columns and labels:
Assay type in all cases: in vivo, BALB/c female mice
IL-23 = IL-23 content in skin of psoriasis mice by ELISA kit; conditions: compared with model group; intragastric daily (bacteria 0.2 mL of 1×10^9 CFU/mL; methotrexate 1 mg/kg/day); back skin, 1st day of week 4
Text: (§1) 6 to 8-week-old SPF-class BALB/c female mice were divided into 4 groups: a normal group, a model group, a positive reference group (hereinafter referred to as PRG) and experimental groups, where the experimental groups included a CCFM1078 group intragastrically administrated with the B. breve CCFM1078 and a B. breve 1 group intragastrically administrated with the B. breve 1, with 6 animals in each group. All mice were raised in the Experimental Animal Center of Jiangnan University and fed with ordinary feed, at a constant temperature of 21 to 26° C. and at the humidity of 40 to 70%, with noise of less than or equal to 60 dB, and animal illumination of 15 to 20 LX (all animal experiment procedures were reviewed and approved by the Animal welfare and Ethics Management Committee of Jiangnan University).
(§2) The experimental cycle was a total of 3 weeks, and modeling was performed in week 3. The back of the mice was depilated the day before modeling, in an area of about 2.5 cm×2.5 cm. […] The mice were sacrificed on the 1st day of week 4, a part of the skin of the back depilated region of mice was taken and stored at −80° C., and the content of IL-23 in the skin was detected by an ELISA kit.

IL-22 = IL-22 content in skin of psoriasis mice by ELISA kit; conditions: compared with model group; intragastric daily (bacteria 0.2 mL of 1×10^9 CFU/mL; methotrexate 1 mg/kg/day); back skin, 1st day of week 4
Text: as §1
as §2, with “IL-22” for “IL-23”

IL-17 = IL-17 content in skin of psoriasis mice by ELISA kit; conditions: compared with model group; intragastric daily (bacteria 0.2 mL of 1×10^9 CFU/mL); back skin, 1st day of week 4
Text: as §1
as §2, with “IL-17” for “IL-23”

CN(Cc1cnc2nc(N)nc(N)c2n1)c1ccc(C(=O)N[C@@H](CCC(=O)O)C(=O)O)cc1 [methotrexate]
decrease of IL-23 content in the skin (IL-23): 43.8%
decrease of IL-22 content in the skin (IL-22): 41.8%
decrease of IL-17 content in the skin (IL-17): 24.6%
